The values below come from ChEMBL document CHEMBL3259595, “Nitric oxide synthase inhibitors that interact with both heme propionate and tetrahydrobiopterin show high isoform selectivity” (J Med Chem, 2014).

One may read the Ki as a dissociation constant, usually derived from enzyme kinetics or from competition with a known ligand.

Molecules are shown by their SMILES.

Test [1] is described as follows: Selectivity ratio of Ki for purified mouse iNOS to Ki for purified rat nNOS.
In test [2] the target is Nitric oxide synthase 1 (Rattus norvegicus, UniProt P29476). Nature of the test: Inhibition of purified rat nNOS assessed as inhibition of nitric oxide-mediated oxidation of hemoglobin-A by hemoglobin capture assay.
In test [3] the target is T1, Nitric oxide synthase 3 (Bos taurus, UniProt P29473).
T1 sequence (P29473 whole entry): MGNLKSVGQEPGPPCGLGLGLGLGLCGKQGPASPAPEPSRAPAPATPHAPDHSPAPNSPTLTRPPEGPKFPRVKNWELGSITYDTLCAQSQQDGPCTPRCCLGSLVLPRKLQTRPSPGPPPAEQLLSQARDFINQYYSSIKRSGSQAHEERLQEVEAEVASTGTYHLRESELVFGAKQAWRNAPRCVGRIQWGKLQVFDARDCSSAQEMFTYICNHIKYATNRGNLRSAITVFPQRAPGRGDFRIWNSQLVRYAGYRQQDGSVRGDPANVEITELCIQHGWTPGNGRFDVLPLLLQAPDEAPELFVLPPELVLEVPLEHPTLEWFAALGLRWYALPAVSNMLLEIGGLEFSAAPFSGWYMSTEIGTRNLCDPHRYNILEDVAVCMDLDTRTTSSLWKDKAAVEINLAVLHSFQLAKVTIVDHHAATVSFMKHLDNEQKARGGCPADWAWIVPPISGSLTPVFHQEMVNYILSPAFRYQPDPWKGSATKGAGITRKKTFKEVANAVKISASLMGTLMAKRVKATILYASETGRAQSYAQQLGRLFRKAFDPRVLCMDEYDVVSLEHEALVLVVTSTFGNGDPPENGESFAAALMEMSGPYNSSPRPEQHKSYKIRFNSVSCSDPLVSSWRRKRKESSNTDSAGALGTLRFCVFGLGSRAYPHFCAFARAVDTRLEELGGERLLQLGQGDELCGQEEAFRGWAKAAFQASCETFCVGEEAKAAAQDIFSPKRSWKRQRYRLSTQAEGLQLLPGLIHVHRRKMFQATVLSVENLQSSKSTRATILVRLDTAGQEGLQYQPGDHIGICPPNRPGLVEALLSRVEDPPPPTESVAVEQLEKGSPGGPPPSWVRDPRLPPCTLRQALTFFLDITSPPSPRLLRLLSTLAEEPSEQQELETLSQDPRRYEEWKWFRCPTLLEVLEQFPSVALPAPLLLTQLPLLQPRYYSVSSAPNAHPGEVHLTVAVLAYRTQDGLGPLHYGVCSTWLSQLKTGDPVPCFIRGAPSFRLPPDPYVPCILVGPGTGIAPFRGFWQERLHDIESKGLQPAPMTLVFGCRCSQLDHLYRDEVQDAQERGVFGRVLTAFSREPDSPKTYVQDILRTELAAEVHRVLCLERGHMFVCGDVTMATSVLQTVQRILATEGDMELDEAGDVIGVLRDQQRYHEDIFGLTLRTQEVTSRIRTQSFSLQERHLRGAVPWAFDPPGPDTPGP
Kind of test: Inhibition of purified bovine eNOS assessed as inhibition of nitric oxide-mediated oxidation of hemoglobin-A by hemoglobin capture assay.

In test [4] the target is T2, Nitric oxide synthase, inducible (Mus musculus, UniProt P29477).
T2 sequence (P29477 whole entry): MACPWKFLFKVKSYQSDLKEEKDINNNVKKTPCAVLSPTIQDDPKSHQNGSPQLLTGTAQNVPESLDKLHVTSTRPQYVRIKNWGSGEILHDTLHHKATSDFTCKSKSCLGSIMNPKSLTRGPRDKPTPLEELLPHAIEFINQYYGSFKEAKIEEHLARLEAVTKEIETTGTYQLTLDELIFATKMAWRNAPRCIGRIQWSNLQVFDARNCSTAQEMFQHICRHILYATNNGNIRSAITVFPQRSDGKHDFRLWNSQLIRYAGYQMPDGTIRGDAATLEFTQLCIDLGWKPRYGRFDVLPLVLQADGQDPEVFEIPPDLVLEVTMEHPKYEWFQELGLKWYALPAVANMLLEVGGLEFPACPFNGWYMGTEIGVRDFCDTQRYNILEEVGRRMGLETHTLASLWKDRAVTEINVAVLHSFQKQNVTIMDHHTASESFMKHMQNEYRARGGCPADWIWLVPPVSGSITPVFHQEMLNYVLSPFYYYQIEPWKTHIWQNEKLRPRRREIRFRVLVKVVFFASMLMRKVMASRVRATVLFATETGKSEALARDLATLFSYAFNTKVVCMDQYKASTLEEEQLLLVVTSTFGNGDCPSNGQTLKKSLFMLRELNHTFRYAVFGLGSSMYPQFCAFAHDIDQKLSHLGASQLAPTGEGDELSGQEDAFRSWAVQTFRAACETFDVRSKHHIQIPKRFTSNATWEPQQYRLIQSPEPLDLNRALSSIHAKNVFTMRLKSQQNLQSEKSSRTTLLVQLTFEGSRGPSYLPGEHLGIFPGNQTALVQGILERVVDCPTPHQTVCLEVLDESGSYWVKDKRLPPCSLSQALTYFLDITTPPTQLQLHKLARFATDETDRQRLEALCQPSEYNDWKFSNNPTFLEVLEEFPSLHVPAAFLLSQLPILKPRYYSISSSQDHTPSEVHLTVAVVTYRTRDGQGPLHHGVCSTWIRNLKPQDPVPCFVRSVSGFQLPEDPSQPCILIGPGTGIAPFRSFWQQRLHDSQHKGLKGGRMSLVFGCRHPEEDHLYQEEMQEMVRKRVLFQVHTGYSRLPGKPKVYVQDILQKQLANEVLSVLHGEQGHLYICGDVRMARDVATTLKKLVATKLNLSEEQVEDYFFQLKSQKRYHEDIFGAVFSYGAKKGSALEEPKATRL
Nature of the test: Inhibition of purified mouse iNOS assessed as inhibition of nitric oxide-mediated oxidation of hemoglobin-A by hemoglobin capture assay.

Test [5] in a line: Selectivity ratio of Ki for purified bovine eNOS to Ki for purified rat nNOS.

Sequence of Nitric oxide synthase 1 (P29476 whole entry): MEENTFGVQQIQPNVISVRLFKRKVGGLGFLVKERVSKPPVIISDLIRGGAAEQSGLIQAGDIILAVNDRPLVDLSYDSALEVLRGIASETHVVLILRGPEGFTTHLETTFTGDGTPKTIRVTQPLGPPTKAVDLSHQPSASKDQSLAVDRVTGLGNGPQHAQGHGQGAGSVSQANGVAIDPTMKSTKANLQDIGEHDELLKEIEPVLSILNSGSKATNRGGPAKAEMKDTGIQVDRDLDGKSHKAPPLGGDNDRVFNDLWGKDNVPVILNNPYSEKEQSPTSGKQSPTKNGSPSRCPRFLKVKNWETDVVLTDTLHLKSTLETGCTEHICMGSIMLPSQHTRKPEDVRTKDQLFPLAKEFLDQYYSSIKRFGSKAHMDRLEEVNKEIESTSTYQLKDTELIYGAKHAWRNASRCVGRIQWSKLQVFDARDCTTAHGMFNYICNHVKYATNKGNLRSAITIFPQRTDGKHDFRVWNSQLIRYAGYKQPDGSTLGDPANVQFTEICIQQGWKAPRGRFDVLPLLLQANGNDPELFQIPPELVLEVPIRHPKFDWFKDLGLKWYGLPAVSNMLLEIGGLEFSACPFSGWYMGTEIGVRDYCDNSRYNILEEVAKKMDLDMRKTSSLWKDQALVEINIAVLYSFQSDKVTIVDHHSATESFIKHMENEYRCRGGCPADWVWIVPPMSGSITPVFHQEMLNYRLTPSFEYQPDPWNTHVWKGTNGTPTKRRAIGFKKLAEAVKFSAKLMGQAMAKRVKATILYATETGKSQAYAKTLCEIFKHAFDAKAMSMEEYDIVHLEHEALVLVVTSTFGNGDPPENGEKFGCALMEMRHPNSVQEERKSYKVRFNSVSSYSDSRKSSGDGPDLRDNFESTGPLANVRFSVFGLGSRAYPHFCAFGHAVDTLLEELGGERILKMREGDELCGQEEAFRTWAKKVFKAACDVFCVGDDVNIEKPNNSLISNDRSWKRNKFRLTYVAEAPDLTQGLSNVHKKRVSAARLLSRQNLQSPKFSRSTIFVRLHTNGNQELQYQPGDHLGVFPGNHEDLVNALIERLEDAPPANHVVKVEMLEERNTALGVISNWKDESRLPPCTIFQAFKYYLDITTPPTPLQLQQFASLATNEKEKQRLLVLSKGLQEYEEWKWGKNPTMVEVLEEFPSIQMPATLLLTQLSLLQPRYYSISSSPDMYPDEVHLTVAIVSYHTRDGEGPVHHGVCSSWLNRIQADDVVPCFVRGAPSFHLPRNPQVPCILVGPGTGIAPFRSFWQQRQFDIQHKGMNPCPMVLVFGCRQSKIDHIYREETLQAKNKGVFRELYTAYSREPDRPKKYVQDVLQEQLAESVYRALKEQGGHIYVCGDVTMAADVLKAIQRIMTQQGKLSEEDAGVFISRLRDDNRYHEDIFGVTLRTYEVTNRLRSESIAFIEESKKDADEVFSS

As to `Cc1cc(N)nc(CCc2cccc(C(O)Cc3cc(C)cc(N)n3)c2)c1` (configuration not stated), the results for the Ratio Ki in test [1] and in test [5] were 86 and 52, respectively. For the same compound, the inhibition constant (Ki) in test [2] turned out to be 0.07 µM; in test [3] it was 3.61 µM; in test [4], 5.99 µM.

For `Cc1cc(N)nc(CCc2cccc(C(CN)Cc3cc(C)cc(N)n3)n2)c1` (racemic), the Ki in test [2] is 0.123 µM; in test [4], 17.9 µM.

Regarding `Cc1ccnc(CCc2cccc([C@H](N)Cc3cc(C)cc(N)n3)c2)c1`, the values for the Ki in test [3] and in test [4] were 1050 µM and over 100 µM, respectively.

For the compound `Cc1ccnc(CCc2cccc([C@@H](N)Cc3cc(C)cc(N)n3)c2)c1`, the values for the Ratio Ki in test [1] and in test [5] were over 110 and 363, respectively. Besides, the Ki in test [4] was over 100 µM.
